Results as given in ChEMBL document CHEMBL1137972, “Synthesis and anti-HCMV activity of 1-acyl-beta-lactams and 1-acylazetidines derived from phenylalanine” (Bioorg Med Chem Lett, 2004).

Tests used:
HEL [1] = assay: Effective concentration against human cytomegalovirus AD-169 strain in HEL cell cultures; format: functional, cell-based
HEL [2] = assay: Effective concentration against human cytomegalovirus Davies strain in HEL cell cultures; format: functional, cell-based
HEL [3] = assay: Cytotoxic concentration required to reduce HEL cell growth by 50%; format: functional; conditions: Homo sapiens

SMILES	EC50 (HEL [1]) [µM]	EC50 (HEL [2]) [µM]	CC50 (HEL [3]) [µM]
CC(C)(C)OC(=O)C1(Cc2ccccc2)CC(=O)N1C(=O)Nc1ccccc1 (centres undefined)	50	50	118
C[C@@H](NC(=O)N1C(=O)C[C@@]1(Cc1ccccc1)C(=O)OC(C)(C)C)c1ccccc1	32	33	70
C[C@H](NC(=O)N1C(=O)C[C@]1(Cc1ccccc1)C(=O)OC(C)(C)C)c1ccccc1	32	33	164
CC(C)(C)OC(=O)C1(Cc2ccccc2)CCN1C(=O)OCc1ccccc1 (centres undefined)	0.74	0.62	34
C[C@@H](NC(=O)N1C(=O)C[C@@]1(Cc1ccccc1)C(=O)O)c1ccccc1	> 200	> 200	> 200
C[C@H](NC(=O)N1C(=O)C[C@@]1(Cc1ccccc1)C(=O)OC(C)(C)C)c1ccccc1	35	35	184
CC(C)(C)OC(=O)N1C(=O)CC1(Cc1ccccc1)C(=O)OC(C)(C)C (centres undefined)	> 200	> 200	> 200
Nc1ccn(C[C@@H](CO)OCP(=O)(O)O)c(=O)n1 [CIDOFOVIR]	0.16	0.5	> 150
Nc1nc2c(ncn2COC(CO)CO)c(=O)[nH]1 [GANCICLOVIR]	0.9	0.8	> 150
C[C@@H](NC(=O)N1C(=O)C[C@]1(Cc1ccccc1)C(=O)O)c1ccccc1	> 50	> 50	> 200
CC(C)(C)OC(=O)C1(Cc2ccccc2)CC(=O)N1C(=O)OCc1ccccc1 (centres undefined)	11	13	36
C[C@H](NC(=O)N1C(=O)C[C@@]1(Cc1ccccc1)C(=O)O)c1ccccc1	> 50	> 50	187
C[C@H](NC(=O)N1C(=O)C[C@]1(Cc1ccccc1)C(=O)O)c1ccccc1	> 200	> 200	> 200
C[C@@H](NC(=O)N1C(=O)C[C@]1(Cc1ccccc1)C(=O)OC(C)(C)C)c1ccccc1	100	107	> 200
O=C1C[C@H](Cc2ccccc2)N1C(=O)NCc1ccccc1	53		> 750
